Measured values as given in PubChem BioAssay AID1745864.

Target: Excitatory amino acid transporter 1 (Homo sapiens) (UniProt P43003)
Test: EAAT1 electrogenic uptake substrate activity – HEK293 JumpIn overexpressing cells, membrane potential dye, dose response (AID 1745864)
Conditions: HEK293 JumpIn SLC1A3 OE, FLIPR membrane potential

Chain of Excitatory amino acid transporter 1 (Homo sapiens) (P43003 whole entry, looked up): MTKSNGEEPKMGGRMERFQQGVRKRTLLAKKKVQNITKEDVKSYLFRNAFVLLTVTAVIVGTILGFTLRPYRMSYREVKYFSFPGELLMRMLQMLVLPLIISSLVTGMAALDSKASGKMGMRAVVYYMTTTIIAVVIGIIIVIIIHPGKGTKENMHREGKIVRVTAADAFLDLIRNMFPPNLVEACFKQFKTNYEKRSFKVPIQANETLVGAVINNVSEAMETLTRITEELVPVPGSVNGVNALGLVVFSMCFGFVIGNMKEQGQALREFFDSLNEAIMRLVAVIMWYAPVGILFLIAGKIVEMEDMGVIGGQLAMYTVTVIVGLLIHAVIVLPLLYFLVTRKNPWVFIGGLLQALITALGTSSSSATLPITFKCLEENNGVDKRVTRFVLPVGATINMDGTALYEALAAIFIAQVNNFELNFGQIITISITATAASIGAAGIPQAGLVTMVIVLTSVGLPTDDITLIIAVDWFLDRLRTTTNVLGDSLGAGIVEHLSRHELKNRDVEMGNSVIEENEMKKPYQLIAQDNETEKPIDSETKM

- EC50: 376 µM
SMILES: N[C@@H](CS)C(=O)O
